Data on ten compounds can be found in ChEMBL document CHEMBL5223164 (ACS Med Chem Lett, 2023).

Data set [1] concerns the target Somatostatin receptor type 4 (Homo sapiens, UniProt P31391). The data set can be described thus: Agonist activity at human SST4 receptor expressed in CHO-K1 cells assessed as inhibition of NKH477-induced intracellular cAMP accumulation incubated for 20 mins by HTRF assay. The format is cell-based. Background: Changes in cAMP serve as a functional read-out for many G protein-coupled receptors.

For data set [2], the target named is T1, Cytochrome P450 2C19 (Homo sapiens, UniProt P33261). The data set can be described thus: Inhibition of human CYP2C19 expressed in insect cell microsomes at 10 uM in presence of NADP+ by fluorescence based analysis. The format is ADME, Microsome.
For data set [3], the target named is Somatostatin receptor type 2 (Homo sapiens, UniProt P30874).
Description: Agonist activity at human SST2 receptor expressed in CHO-K1 cells assessed as inhibition of NKH477-induced intracellular cAMP accumulation incubated for 20 mins by HTRF assay
Data set [4] concerns the target T2, Cytochrome P450 2C9 (Homo sapiens, UniProt P11712). The data set can be described thus: Inhibition of human CYP2C9 expressed in insect cell microsomes in presence of NADP+ by fluorescence based analysis.
In data set [5] the target is T3, Cytochrome P450 2D6 (Homo sapiens, UniProt P10635). The data set can be described thus: Inhibition of human CYP2D6 expressed in insect cell microsomes in presence of NADP+ by fluorescence based analysis.
Data set [6] deals with Somatostatin receptor type 5 (Homo sapiens, UniProt P35346). The data set can be described thus: Agonist activity at human SST5 receptor expressed in CHO-K1 cells assessed as inhibition of NKH477-induced intracellular cAMP accumulation incubated for 20 mins by HTRF assay. In kind it is cell-based.
Data set [7] has as its target T1, Cytochrome P450 2C19. The data set can be described thus: Inhibition of human CYP2C19 expressed in insect cell microsomes in presence of NADP+ by fluorescence based analysis.
Data set [8] concerns the target T4, Cytochrome P450 3A4 (Homo sapiens, UniProt P08684). The data set can be described thus: Inhibition of human CYP3A4 expressed in insect cell microsomes at 10 uM in presence of NADP+ by fluorescence based analysis. In kind it is ADME, Microsome.
The target of data set [9] is Voltage-gated inwardly rectifying potassium channel KCNH2 (Homo sapiens, UniProt Q12809). The data set can be described thus: Inhibition of hERG by fluorescence polarization assay. The format is toxicity. On the technique in general: hERG is a cardiac potassium channel; its block is linked to QT prolongation.
Data set [10] deals with T3, Cytochrome P450 2D6. The data set can be described thus: Inhibition of human CYP2D6 expressed in insect cell microsomes at 10 uM in presence of NADP+ by fluorescence based analysis. In kind it is ADME, Microsome.
Data set [11] concerns the target T2, Cytochrome P450 2C9. The data set can be described thus: Inhibition of human CYP2C9 expressed in insect cell microsomes at 10 uM in presence of NADP+ by fluorescence based analysis. The format is ADME, Microsome.
Data set [12] has as its target T4, Cytochrome P450 3A4. The data set can be described thus: Inhibition of human CYP3A4 expressed in insect cell microsomes in presence of NADP+ by fluorescence based analysis.
Data set [13] concerns the target Somatostatin receptor type 1 (Homo sapiens, UniProt P30872). The data set can be described thus: Agonist activity at human SST1 receptor expressed in CHO-K1 cells assessed as inhibition of NKH477-induced intracellular cAMP accumulation incubated for 20 mins by HTRF assay. In kind it is cell-based.
For data set [14], the target named is Somatostatin receptor type 3 (Homo sapiens, UniProt P32745). The data set can be described thus: Agonist activity at human SST3 receptor expressed in CHO-K1 cells assessed as inhibition of NKH477-induced intracellular cAMP accumulation incubated for 20 mins by HTRF assay. In kind it is cell-based.
Data set [15] is described as follows: in vivo. The settings on record: beagle, dog, po, 10 mg/kg.
Data set [16] can be described thus: Volume of distribution at steady state in Beagle dog at 2.5 mg/kg, iv. The conditions noted are these: in vivo.
The nature of data set [17]: Clearance in Sprague-Dawley rat at 2.5 mg/kg, iv. The settings on record: in vivo.
Data set [18] in a line: in vivo. The settings on record: Sprague-Dawley, rat, po, 10 mg/kg.
Data set [19] can be described thus: Half life in Sprague-Dawley rat at 2.5 mg/kg, iv. The settings on record: in vivo.
Data set [20] can be described thus: Volume of distribution at steady state in Sprague-Dawley rat at 2.5 mg/kg, iv. The settings on record: in vivo.
Data set [21] concerns the target Somatostatin receptor type 2 (Rattus norvegicus, UniProt P30680). The data set can be described thus: Agonist activity at rat SST2 receptor.
A short description of data set [22]: in vivo. The settings on record: Sprague-Dawley, rat, po, 10 mg/kg. This is another data set of the same source.
The nature of data set [23]: Half life in Beagle dog at 2.5 mg/kg, iv. The settings on record: in vivo.
Data set [24] concerns the target Somatostatin receptor type 2 (Canis lupus familiaris, UniProt Q49LX6). The data set can be described thus: Agonist activity at dog SST2 receptor.
Data set [25] in a line: in vivo. The conditions noted are these: beagle, dog, po, 10 mg/kg. This is another data set of the same source.
Data set [26] is described as follows: Clearance in Beagle dog at 2.5 mg/kg, iv. The conditions noted are these: in vivo.

The EC50 is the concentration that produces a half-maximal response. Usually IC50 stands for the point on the concentration scale where inhibition reaches its midpoint. One may read the AUC(0-inf) as the area under the concentration-time curve extrapolated to infinity. As a reminder, the Vd is a proportionality between amount in the body and measured concentration, not a real space. A high value points to extensive tissue distribution. Broadly, the clearance is the volume of plasma or blood freed of the substance per unit of time. A higher clearance goes with efficient removal. The half-life is how long it takes for the measured level to halve. Higher therefore signals slow decline. The Cmax is the highest concentration seen after dosing.

Chain of Somatostatin receptor type 2 (Homo sapiens, UniProt P30874) (P30874 whole entry): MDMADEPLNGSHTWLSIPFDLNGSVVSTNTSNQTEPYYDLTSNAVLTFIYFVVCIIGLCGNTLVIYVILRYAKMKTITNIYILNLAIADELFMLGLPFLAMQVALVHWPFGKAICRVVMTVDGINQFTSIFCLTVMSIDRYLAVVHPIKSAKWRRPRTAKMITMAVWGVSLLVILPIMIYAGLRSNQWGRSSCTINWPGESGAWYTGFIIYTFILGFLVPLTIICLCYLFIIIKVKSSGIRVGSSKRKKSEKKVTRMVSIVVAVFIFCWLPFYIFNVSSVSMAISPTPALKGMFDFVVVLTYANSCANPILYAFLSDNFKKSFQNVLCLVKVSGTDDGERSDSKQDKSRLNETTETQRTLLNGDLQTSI
T1 sequence (P33261 whole entry): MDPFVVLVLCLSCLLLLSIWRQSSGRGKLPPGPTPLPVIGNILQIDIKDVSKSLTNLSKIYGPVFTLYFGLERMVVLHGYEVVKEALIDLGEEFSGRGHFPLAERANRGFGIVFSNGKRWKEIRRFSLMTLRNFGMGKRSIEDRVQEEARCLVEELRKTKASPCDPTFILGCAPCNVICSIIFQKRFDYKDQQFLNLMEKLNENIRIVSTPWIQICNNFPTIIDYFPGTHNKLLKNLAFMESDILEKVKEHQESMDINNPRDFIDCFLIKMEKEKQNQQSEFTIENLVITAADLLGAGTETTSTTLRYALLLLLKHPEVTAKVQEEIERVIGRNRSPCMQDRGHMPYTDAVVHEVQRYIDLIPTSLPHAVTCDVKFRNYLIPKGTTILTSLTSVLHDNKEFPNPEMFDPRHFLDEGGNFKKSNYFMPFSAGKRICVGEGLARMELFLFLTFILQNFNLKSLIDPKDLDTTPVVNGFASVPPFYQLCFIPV
Chain of Voltage-gated inwardly rectifying potassium channel KCNH2 (Q12809 whole entry): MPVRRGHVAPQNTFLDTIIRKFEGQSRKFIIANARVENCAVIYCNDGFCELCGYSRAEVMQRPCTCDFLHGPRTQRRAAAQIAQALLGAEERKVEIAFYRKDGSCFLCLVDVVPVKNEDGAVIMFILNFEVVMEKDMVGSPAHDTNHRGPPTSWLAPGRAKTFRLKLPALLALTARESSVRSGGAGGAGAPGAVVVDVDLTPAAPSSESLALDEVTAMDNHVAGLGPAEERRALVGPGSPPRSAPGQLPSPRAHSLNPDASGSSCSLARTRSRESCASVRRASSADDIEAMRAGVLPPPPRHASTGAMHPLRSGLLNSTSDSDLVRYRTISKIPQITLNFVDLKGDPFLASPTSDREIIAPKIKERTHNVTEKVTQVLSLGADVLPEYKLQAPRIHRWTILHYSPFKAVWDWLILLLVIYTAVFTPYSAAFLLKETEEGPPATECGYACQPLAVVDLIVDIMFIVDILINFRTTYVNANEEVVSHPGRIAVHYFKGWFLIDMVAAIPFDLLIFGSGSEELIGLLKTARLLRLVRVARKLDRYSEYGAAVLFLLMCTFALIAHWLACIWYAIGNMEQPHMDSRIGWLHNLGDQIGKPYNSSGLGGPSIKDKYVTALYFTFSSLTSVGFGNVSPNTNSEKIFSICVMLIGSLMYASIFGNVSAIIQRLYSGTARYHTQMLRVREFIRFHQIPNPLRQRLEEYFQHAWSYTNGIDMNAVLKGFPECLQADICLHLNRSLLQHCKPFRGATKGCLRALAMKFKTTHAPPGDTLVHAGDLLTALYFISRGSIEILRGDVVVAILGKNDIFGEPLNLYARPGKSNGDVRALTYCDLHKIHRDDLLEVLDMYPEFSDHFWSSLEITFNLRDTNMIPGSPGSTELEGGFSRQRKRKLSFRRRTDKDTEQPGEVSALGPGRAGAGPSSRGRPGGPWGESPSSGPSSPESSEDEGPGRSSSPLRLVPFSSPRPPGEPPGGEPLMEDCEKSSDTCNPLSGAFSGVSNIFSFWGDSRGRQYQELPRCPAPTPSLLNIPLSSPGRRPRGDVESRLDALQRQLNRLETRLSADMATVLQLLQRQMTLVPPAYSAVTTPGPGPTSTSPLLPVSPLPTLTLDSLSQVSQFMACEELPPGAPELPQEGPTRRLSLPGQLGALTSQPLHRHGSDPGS
Chain of Somatostatin receptor type 5 (P35346 whole entry): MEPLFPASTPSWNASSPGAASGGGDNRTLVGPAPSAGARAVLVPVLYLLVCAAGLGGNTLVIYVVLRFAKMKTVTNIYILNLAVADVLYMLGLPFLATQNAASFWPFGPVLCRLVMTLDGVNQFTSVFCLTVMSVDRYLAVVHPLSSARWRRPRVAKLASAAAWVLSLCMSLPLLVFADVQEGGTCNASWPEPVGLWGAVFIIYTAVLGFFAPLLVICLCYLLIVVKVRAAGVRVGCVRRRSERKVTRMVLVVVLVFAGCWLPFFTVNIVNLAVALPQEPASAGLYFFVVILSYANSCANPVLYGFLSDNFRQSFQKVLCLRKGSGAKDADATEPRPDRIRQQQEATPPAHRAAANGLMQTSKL
Chain of Somatostatin receptor type 3 (P32745 whole entry): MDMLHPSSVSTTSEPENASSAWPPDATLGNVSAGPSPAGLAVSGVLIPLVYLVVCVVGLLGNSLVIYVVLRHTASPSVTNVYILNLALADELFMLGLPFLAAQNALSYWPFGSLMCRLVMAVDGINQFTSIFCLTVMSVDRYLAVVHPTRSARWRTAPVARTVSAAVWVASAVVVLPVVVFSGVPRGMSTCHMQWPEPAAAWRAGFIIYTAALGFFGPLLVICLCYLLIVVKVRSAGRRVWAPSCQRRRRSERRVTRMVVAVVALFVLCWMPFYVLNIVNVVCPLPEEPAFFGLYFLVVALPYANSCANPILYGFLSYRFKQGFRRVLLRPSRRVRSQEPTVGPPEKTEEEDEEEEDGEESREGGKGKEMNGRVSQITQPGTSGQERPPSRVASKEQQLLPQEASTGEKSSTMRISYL
Chain of Somatostatin receptor type 1 (P30872 whole entry): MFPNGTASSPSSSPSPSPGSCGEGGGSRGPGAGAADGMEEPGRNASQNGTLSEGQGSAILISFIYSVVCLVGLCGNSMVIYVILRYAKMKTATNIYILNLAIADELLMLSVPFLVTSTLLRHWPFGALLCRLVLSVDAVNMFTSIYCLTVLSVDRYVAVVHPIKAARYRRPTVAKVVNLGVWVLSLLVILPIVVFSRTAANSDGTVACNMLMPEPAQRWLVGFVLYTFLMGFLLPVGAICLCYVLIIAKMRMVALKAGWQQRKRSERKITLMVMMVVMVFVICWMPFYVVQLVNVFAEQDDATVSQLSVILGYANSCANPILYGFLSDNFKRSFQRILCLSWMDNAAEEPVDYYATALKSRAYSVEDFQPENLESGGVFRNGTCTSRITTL
T2 sequence (P11712 whole entry): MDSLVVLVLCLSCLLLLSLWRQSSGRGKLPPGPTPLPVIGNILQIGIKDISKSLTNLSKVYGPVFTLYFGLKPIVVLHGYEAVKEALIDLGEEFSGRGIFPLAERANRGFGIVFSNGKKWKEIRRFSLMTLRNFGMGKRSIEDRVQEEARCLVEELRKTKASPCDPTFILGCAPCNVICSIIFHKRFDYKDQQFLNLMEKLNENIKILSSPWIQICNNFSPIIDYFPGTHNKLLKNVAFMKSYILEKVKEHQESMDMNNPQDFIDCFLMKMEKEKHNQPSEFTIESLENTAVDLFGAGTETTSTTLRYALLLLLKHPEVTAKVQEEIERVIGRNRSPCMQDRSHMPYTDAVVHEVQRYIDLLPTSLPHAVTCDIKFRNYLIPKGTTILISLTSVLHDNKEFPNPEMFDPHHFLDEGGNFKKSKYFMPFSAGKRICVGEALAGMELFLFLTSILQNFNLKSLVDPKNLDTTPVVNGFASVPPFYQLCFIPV
Chain of Somatostatin receptor type 4 (P31391 whole entry): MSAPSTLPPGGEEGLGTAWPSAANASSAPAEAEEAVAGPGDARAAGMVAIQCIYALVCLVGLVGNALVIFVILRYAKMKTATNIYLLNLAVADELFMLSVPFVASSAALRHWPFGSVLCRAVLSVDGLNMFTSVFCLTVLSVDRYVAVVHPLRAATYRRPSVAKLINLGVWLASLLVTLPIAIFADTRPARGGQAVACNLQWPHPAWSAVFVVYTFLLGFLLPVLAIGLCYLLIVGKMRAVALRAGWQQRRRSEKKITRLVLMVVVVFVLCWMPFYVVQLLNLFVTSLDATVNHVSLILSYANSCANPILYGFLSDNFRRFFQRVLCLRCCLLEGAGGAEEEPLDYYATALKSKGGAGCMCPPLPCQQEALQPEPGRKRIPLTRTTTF
T4 sequence (P08684 whole entry): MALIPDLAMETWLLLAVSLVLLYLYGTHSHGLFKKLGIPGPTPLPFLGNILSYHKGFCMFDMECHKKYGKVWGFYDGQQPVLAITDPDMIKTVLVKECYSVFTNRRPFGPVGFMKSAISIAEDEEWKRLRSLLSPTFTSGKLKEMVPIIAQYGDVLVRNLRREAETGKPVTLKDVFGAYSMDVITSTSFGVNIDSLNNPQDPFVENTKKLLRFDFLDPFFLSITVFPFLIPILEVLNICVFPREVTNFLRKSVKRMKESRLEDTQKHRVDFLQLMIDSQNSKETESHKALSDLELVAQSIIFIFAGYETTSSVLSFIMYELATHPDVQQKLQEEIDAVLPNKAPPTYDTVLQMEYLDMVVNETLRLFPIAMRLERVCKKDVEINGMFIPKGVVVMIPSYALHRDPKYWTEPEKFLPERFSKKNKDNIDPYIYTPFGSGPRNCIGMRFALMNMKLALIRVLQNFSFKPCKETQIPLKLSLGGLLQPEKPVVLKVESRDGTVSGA
Chain of Somatostatin receptor type 2 (Canis lupus familiaris, UniProt Q49LX6) (Q49LX6 whole entry): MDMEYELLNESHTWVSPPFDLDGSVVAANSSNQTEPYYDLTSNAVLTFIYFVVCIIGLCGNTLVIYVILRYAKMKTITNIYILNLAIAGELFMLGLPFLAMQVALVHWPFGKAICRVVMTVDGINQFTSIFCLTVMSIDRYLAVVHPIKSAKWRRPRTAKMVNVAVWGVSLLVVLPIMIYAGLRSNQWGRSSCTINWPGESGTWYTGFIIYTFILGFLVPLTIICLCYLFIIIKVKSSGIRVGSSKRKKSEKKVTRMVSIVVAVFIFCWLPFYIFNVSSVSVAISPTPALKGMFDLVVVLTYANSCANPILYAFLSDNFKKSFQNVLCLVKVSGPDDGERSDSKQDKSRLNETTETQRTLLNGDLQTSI

Take `N#Cc1cc(F)cc(-c2ccc3ncc(-c4cc(F)cc(F)c4)c(N4CCC(N)CC4)c3c2)c1O`: the EC50 is more than 1 µM in data set [1], 0.00034 µM in data set [3], more than 1 µM in data set [6] and more than 1 µM in data set [13]. Moreover, the “inhibition (INH)” value at Cytochrome P450 2C19 [2], at Cytochrome P450 3A4 [8], at Cytochrome P450 2D6 [10] and at Cytochrome P450 2C9 [11] was “Not Active” each time. In addition, the IC50 was 6.31 µM on Cytochrome P450 2C9 [4]; more than 10 µM at Cytochrome P450 2D6 [5]; 3.98 µM at Cytochrome P450 2C19 [7]; 10 µM in data set [9]; 10 µM on Cytochrome P450 3A4 [12].

Take `NC1CCN(c2c(-c3cc(F)cc(F)c3)cnc3ccc(-c4cccc(O)c4)cc23)CC1`: the EC50 is 0.0158 µM in data set [1], more than 1 µM in data set [6], more than 1 µM in data set [14] and more than 1 µM in data set [13]. Also, the IC50 in [9] is less than 1 µM.

Take `COc1cc(F)cc(-c2cnc3ccc(-c4cccc(C#N)c4O)cc3c2N2CCC(N)CC2)c1`: the half-maximal effective concentration (EC50) in data set [1], in [6], in [14] and in data set [13] was more than 1 µM throughout.

With `Cc1cc(F)cc(-c2cnc3ccc(-c4cccc(C#N)c4O)cc3c2N2CCC(N)CC2)c1`, the EC50 is more than 1 µM in [1]; 0.00017 µM in data set [3]; more than 1 µM in data set [6]; more than 1 µM in data set [14]; more than 1 µM in [13].

`N#Cc1cccc(-c2ccc3ncc(-c4cccc(F)c4)c(N4CCC(N)CC4)c3c2)c1O`: the EC50 in [1] was 1 µM; in data set [6], more than 1 µM; in data set [14], more than 1 µM; in data set [13], more than 1 µM. The IC50 in [9] is more than 10 µM.

As to `NC1CCN(c2c(-c3cc(F)cc(F)c3)cnc3ccc(-c4cccc(F)c4O)cc23)CC1`, the EC50 in data set [1] is 0.0251 µM; in [6], more than 1 µM; in data set [14], more than 1 µM; in data set [13] it was more than 1 µM. This compound gave an IC50 in [9] of 1 µM.

As for `NC1CCN(c2c(-c3cc(F)cc(F)c3)cnc3ccc(-c4ccccc4O)cc23)CC1`, in data set [3], the EC50 amounted to 0.0034 µM.

In [3], `N#Cc1cccc(-c2ccc3ncc(-c4cc(F)cc(F)c4)c(N4CCC(N)CC4)c3c2)c1` yielded an EC50 of 0.0014 µM.

For the compound `N#Cc1cccc(-c2ccc3ncc(-c4cc(F)cc(F)c4)c(N4CCC(N)CC4)c3c2)c1O` [PALTUSOTINE], the AUC(0-inf) was 10400 ng·h/mL in “in vivo [15]” and 1610 ng·h/mL in the data set “in vivo [18]”. Moreover, the EC50 in data set [1] was 1 µM; in data set [6], more than 1 µM; in data set [21], 0.0012 µM; in data set [24], 0.0066 µM; in data set [14], more than 1 µM; in [13], more than 1 µM. The “inhibition (INH)” value at Cytochrome P450 2C19 [2], on Cytochrome P450 3A4 [8], at Cytochrome P450 2D6 [10] and at Cytochrome P450 2C9 [11] was “Not Active” in each case. Moreover, the Vd in [16] worked out at 3.5 L/kg; in data set [20], 1.5 L/kg. The clearance was found to be 9.1 mL/min/kg in data set [17] and 9.4 mL/min/kg in data set [26]. For the same compound, the IC50 was 7.94 µM on Cytochrome P450 2C9 [4], more than 10 µM on Cytochrome P450 2D6 [5], 5.01 µM on Cytochrome P450 2C19 [7] and more than 10 µM on Cytochrome P450 3A4 [12]. In addition, the half-life is 2.8 h in data set [19] and 7.5 h in data set [23]. Moreover, the Cmax is 129 ng/mL in the data set “in vivo [22]” and 1370 ng/mL in the data set “in vivo [25]”.

`NC1CCN(c2c(-c3cc(Cl)cc(Cl)c3)cnc3ccccc23)CC1` showed an EC50 in data set [3] of 0.14 µM.
